According to article PMC4979060, “Structural basis of metallo-β-lactamase, serine-β-lactamase and penicillin-binding protein inhibition by cyclic boronates” (Nature Communications, 2016):
In brackets after ≈: the same amount, converted by molar mass. Read-outs that look alike come from different tables or passages of the source.

Experiments:
[1] = test system: K. pneumoniae Ecl8 pSU18:NDM-1; experiment: MIC by broth microdilution and checkerboard; assay type: cell-based; details: for MIC: Klebsiella pneumoniae
Description: (§1) Bacterial strains: E. coli ATCC 25922 (ref. [35]) and K. pneumoniae NCTC 5055 (ref. [36]) were used as reference strains. K. pneumoniae Ecl8 (ref. [16]) and its ramR knock-out[37] were used as previously described. K. pneumoniae strain IR8 (ref. [40]), and E. coli strains IR10 and IR60 (ref. [17]) were generous gifts of Prof. T.R. Walsh. Plasmid pSU18:NDM-1 contains the complete blaNDM-1 open reading frame, together with its promoter, cloned into plasmid pSU18 (ref. [41]). The recombinant plasmid was made by PCR amplifying the blaNDM-1 gene and surrounding sequences from E. coli IR10 with primers NDM1F 5′- […] -3′ and NDM1R 5′- GGCGATGACAGCATCATC -3′, TA cloning the amplicon into pCR2.1 TOPO (Invitrogen) and subcloning into pSU18 using BamHI and XbaI.
(§2) MIC values were determined by broth microdilution, in triplicate, in cation-adjusted Mueller Hinton broth (Sigma) according to the Clinical Laboratory Standards Institute (CLSI) guidelines. Experiments were carried out in microtitre plates (Corning) containing the medium plus meropenem (Sequoia Research Products, Pangbourne, UK) and/or inhibitor 2 as appropriate. Chloramphenicol (20 μg ml^−1) was included in assays of strains (K. pneumoniae Ecl8 and derivative) that carried pSU18 plasmids or derivatives (pSU18:NDM-1) to ensure maintenance of plasmids throughout. Inhibitor 2 was dissolved in DMSO to 100 mg ml^−1 and diluted in broth. The final concentration of DMSO in the assays was kept constant at 0.01% (experiments using 10 μg ml^−1 inhibitor) or 0.03% (experiments using 25 μg ml^−1 inhibitor). Plates were incubated overnight at 37 °C for 18–24 h and absorbance at 600 nm read using a Polarstar Omega (BMG LabTech) plate reader.

K. pneumoniae IR8 = experiment: microbe, parasite or virus in culture; assay type: cell-based; details: Klebsiella pneumoniae, K. pneumoniae IR8
Description: as §1, §2

E. coli IR10 = experiment: MIC by broth microdilution; assay type: cell-based; details: Escherichia coli
Description: as §1, §2

E. coli IR60 = experiment: MIC by broth microdilution; assay type: cell-based; details: Escherichia coli
Description: as §1, §2

[2] = test system: K pneumoniae Ecl8 ΔramR pSU18:NDM-1; experiment: MIC by broth microdilution; assay type: cell-based; details: Ecl8 ΔramR pSU18:NDM-1; for MIC: Klebsiella pneumoniae; for Meropenem MIC (25 μg ml^−1 2): with 25 μg ml^−1 2
Description: as §1, §2

[3] = test system: K pneumoniae Ecl8 ΔramR pSU18; experiment: MIC by broth microdilution; assay type: cell-based; details: Klebsiella pneumoniae
Description: as §1, §2

K. pneumoniae Ecl8 pSU18 = experiment: MIC by broth microdilution; assay type: cell-based; details: Klebsiella pneumoniae
Description: as §1, §2

BcII = target: T1, BcII (Bacillus cereus, UniProt P04190); experiment: Fluorogenic β-lactamase inhibition assay (FC-5 substrate), BcII; assay type: biochemical; details: for IC50: 10 min preincubation
T1 construct: made in house; host or cells: E. coli
T1 sequence (P04190 31-257): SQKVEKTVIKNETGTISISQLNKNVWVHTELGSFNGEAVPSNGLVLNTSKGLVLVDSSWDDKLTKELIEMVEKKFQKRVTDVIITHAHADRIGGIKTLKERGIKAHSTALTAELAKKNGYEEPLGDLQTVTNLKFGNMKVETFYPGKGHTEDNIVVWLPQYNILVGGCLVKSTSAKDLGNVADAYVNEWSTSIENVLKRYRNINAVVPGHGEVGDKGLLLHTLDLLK
Experimental: (§3) Kinetic and inhibition analyses, and ^19F NMR studies[10] against bacterial β-lactamases were performed as described. The FC-5 cephalosporin[9] was used as substrate for BcII, VIM-2, IMP-1, NDM-1, SPM-1, TEM-1 and OXA-10, meropenem[28] for CphA and nitrocefin[34] for PBP 3 and PBP 5.
(§4) In brief IC50 values were determined by preincubation of the appropriate amount of enzyme with the cyclic boronates in the assay buffers for 10 min at room temperature prior to the initiation of the assay by the addition of the appropriate substrate. The enzyme concentrations used are the following: 1 nM BcII, 100 nM VIM-2, 10 nM IMP-1, 10 nM NDM-1, 1 nM SPM-1, 1 nM TEM-1, 1 nM OXA-10, 2.5 nM CphA, 4 μM PBP 3 and 5 μM PBP 5; note that the final concentrations are stated. The assay buffers used are the following: 50 mM HEPES, pH 7.2 supplemented with 1 μg BSA, 1 μg ZnSO4 and 0.01% Triton for BcII, VIM-2, IMP-1, NDM-1 and SPM-1, 15 mM MES, pH 6.5 for CphA, 50 mM HEPES, pH 7.2 supplemented with 200 mM NaCl and 0.01% Triton 100 for TEM-1, 100 mM sodium phosphate, pH 7.2 supplemented with 50 mM NaHCO3 and 0.01% Triton 100 for OXA-10 and 50 mM HEPES, pH 7.2 supplemented with 200 mM NaCl and 0.01% Triton 100 for PBP 3 and PBP 5. The amount of substrates used is the following: 5 μM for BcII, VIM-2, IMP-1, NDM-1 and SPM-1, 10 μM for TEM-1 and OXA-10, 125 μM for CphA and 25 μM for PBP 3 and PBP 5; note that the final concentrations are stated.
(§5) The experiments were performed using a PHERAstar FS microplate reader (BMG Labtech) at room temperature (24–25 °C). All enzymes and inhibitors were prepared in the specific assay buffer. The kinetic values in this study are the means from at least three independent measurements; at least nine different concentrations of the inhibitor were used to determine the kinetic parameters (IC50). The IC50 values were determined using the software package Graph Prism 5.

VIM-2 = target: T2, VIM-2 (Escherichia coli, UniProt Q5U7L7); experiment: Fluorogenic β-lactamase inhibition assay (FC-5 substrate), VIM-2; assay type: biochemical; details: for IC50: 10 min preincubation
T2 construct: made in house; host or cells: E. coli
Experimental: as §3, §4, §5

NDM-1 = target: T3, NDM-1 (Klebsiella pneumoniae, UniProt C7C422); experiment: Fluorogenic β-lactamase inhibition assay (FC-5 substrate), NDM-1; assay type: biochemical; details: for IC50: 10 min preincubation
T3 construct: made in house; host or cells: E. coli
T3 sequence (C7C422 29-270, looked up, species assumed): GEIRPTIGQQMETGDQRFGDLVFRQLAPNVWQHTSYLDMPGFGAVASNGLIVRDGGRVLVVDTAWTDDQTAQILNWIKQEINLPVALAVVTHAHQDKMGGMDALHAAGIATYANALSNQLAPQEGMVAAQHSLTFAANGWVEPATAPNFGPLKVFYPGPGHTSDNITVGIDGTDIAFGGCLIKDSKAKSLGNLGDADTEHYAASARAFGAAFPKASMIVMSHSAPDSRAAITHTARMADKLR
Experimental: as §3, §4, §5

SPM-1 = SPM-1 (Pseudomonas aeruginosa, UniProt Q8G9Q0); experiment: Fluorogenic β-lactamase inhibition assay (FC-5 substrate), SPM-1; assay type: biochemical; details: for IC50: 10 min preincubation
Sequence of SPM-1 (Q8G9Q0 entry or part of it): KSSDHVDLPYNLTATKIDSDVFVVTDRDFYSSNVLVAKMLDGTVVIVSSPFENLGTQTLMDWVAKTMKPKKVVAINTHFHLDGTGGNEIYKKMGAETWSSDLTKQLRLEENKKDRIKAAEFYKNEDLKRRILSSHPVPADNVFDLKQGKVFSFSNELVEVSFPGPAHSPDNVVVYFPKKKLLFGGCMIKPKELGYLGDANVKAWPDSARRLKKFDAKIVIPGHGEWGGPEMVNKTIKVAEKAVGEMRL
Experimental: as §3, §4, §5

CphA = target: T4, CphA (Aeromonas hydrophila, UniProt P26918); experiment: B2 MBL inhibition assay (meropenem substrate), CphA; assay type: biochemical, Aeromonas hydrophilia; details: for IC50: 10 min preincubation
T4 construct: made in house; host or cells: E. coli
T4 sequence (P26918 28-254): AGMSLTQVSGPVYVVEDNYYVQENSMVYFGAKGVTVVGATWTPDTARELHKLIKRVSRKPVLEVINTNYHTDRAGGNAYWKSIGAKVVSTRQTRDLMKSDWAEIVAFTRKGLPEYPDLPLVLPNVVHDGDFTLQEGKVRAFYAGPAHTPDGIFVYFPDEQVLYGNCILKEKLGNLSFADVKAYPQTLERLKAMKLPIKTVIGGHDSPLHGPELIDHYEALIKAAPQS
Experimental: as §3, §4, §5

TEM-1 = target: T5, TEM-1 (Escherichia coli, UniProt P62593); experiment: Fluorogenic β-lactamase inhibition assay (FC-5 substrate), TEM-1; assay type: biochemical; details: for IC50: 10 min preincubation
T5 construct: made in house; host or cells: E. coli
T5 sequence (P62593 24-286 limits assumed): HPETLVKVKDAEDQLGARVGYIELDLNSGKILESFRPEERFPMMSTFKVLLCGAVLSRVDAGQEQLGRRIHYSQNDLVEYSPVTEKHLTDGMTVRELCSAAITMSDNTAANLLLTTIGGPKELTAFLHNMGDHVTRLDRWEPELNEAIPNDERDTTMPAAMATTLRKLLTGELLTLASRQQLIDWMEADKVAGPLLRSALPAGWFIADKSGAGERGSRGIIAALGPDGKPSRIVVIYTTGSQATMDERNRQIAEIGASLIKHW
Experimental: as §3, §4, §5

OXA-10 = target: T6, OXA-10 (Pseudomonas aeruginosa, UniProt P14489); experiment: Fluorogenic β-lactamase inhibition assay (FC-5 substrate), OXA-10; assay type: biochemical; details: for IC50: 10 min preincubation
T6 construct: made in house; host or cells: E. coli
T6 sequence (P14489 20-266, species assumed): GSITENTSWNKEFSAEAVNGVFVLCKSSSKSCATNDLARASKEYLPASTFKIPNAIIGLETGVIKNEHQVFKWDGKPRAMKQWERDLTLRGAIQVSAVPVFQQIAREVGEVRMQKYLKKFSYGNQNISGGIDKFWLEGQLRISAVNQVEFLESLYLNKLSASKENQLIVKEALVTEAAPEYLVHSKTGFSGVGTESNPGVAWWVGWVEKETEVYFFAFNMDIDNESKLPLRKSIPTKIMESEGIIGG
Experimental: as §3, §4, §5

PBP 3 = target: T7, PBP 3 (Pseudomonas aeruginosa, UniProt G3XD46); experiment: PBP inhibition assay (nitrocefin substrate), PBP 3; assay type: biochemical; details: NI = no inhibition at 100 μM, read-out: IC50 (μM)/pIC50 (converted)
T7 construct: made in house; host or cells: E. coli
T7 sequence (G3XD46 whole entry): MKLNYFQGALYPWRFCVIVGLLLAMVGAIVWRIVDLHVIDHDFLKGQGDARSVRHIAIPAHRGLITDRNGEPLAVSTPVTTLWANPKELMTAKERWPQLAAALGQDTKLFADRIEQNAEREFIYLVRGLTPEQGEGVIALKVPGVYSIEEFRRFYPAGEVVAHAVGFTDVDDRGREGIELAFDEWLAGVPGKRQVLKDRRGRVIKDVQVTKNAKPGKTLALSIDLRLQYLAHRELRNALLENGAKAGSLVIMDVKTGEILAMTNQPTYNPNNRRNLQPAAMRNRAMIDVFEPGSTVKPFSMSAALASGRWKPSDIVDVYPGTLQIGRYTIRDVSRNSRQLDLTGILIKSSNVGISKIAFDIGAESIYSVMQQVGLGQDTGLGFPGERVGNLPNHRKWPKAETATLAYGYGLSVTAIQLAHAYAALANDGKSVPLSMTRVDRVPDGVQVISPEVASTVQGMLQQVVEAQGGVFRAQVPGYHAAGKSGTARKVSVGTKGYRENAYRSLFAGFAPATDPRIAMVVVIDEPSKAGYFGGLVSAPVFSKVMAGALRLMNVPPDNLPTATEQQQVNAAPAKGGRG
Experimental: as §3, §4, §5

IMP-1 = target: T8, IMP-1 (Serratia marcescens, UniProt P52699); experiment: Fluorogenic β-lactamase inhibition assay (FC-5 substrate), IMP-1; assay type: biochemical
T8 construct: made in house; host or cells: E. coli
T8 sequence (P52699 19-246, looked up, species assumed): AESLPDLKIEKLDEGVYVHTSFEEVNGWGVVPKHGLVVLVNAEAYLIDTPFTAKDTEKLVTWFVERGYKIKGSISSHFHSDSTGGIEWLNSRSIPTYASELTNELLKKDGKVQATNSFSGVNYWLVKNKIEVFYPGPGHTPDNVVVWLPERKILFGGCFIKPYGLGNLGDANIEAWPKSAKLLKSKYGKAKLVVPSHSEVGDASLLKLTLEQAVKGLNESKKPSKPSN
Experimental: as §3
In brief IC50 values were determined by preincubation of the appropriate amount of enzyme with the cyclic boronates in the assay buffers for 10 min at room temperature prior to the initiation of the assay by the addition of the appropriate substrate. The enzyme concentrations used are the following: 1 nM BcII, 100 nM VIM-2, 10 nM IMP-1, 10 nM NDM-1, 1 nM SPM-1, 1 nM TEM-1, 1 nM OXA-10, 2.5 nM CphA, 4 μM PBP 3 and 5 μM PBP 5; note that the final concentrations are stated. […]
The experiments were performed using a PHERAstar FS microplate reader (BMG Labtech) at room temperature (24–25 °C). […] The IC50 values were determined using the software package Graph Prism 5.

C[C@@H](O)[C@H]1C(=O)N2C(C(=O)O)=C(S[C@@H]3CN[C@H](C(=O)N(C)C)C3)[C@H](C)[C@H]12 [Meropenem, meropenem]
MIC ([1]; read-out: Meropenem MIC (10 μg ml^−1 2), with 10 μg ml^−1 2, Ecl8 pSU18:NDM-1): 8 µg/mL
MIC ([1]; read-out: Meropenem MIC (25 μg ml^−1 2), with 25 μg ml^−1 2, Ecl8 pSU18:NDM-1): < 8 µg/mL
MIC ([1]; read-out: Meropenem MIC, checkerboard, 2 at 0 μg mL-1): 128 µg/mL
MIC ([1]; read-out: Meropenem MIC, checkerboard, 2 at 0.5 μg mL-1): 64 µg/mL
MIC ([1]; read-out: Meropenem MIC, checkerboard, 2 at 1 μg mL-1): 32 µg/mL
MIC ([1]; read-out: Meropenem MIC, checkerboard, 2 at 2 μg mL-1): 32 µg/mL
MIC ([1]; read-out: Meropenem MIC, checkerboard, 2 at 4 μg mL-1): 16 µg/mL
MIC ([1]; read-out: Meropenem MIC, checkerboard, 2 at 8 μg mL-1): 8 µg/mL
MIC ([1]; read-out: Meropenem MIC, checkerboard, 2 at 16 μg mL-1): 4 µg/mL
MIC ([1]; read-out: Meropenem MIC, checkerboard, 2 at 32 μg mL-1): 2 µg/mL
MIC ([1]; read-out: Meropenem MIC, checkerboard, 2 at 64 μg mL-1): ≤ 1 µg/mL
MIC ([1]; read-out: Meropenem MIC, meropenem alone, Ecl8 pSU18:NDM-1): > 128 µg/mL
Meropenem MIC (25 μg ml^−1 2) ([1]; with 25 μg ml^−1 2, Ecl8 pSU18:NDM-1): 4 µg/mL
MIC (K. pneumoniae IR8; meropenem alone, read-out: Meropenem MIC): 128 µg/mL (≈ 334 µM)
MIC (K. pneumoniae IR8; with 10 μg ml^−1 2, read-out: Meropenem MIC (10 μg ml^−1 2)): 32 µg/mL (≈ 83.4 µM)
MIC (K. pneumoniae IR8; with 25 μg ml^−1 2, read-out: Meropenem MIC (25 μg ml^−1 2)): 16 µg/mL (≈ 41.7 µM)
MIC (E. coli IR10; IR10, read-out: Meropenem MIC): 128 µg/mL (≈ 334 µM)
MIC (E. coli IR10; IR10, read-out: Meropenem MIC (10 μg ml^−1 2)): 8 µg/mL (≈ 20.9 µM)
MIC (E. coli IR10; IR10, read-out: Meropenem MIC (25 μg ml^−1 2)): 2 µg/mL (≈ 5.22 µM)
MIC (E. coli IR60; IR60, read-out: Meropenem MIC): 64 µg/mL (≈ 167 µM)
MIC (E. coli IR60; IR60, read-out: Meropenem MIC (10 μg ml^−1 2)): 16 µg/mL (≈ 41.7 µM)
MIC (E. coli IR60; IR60, read-out: Meropenem MIC (25 μg ml^−1 2)): 16 µg/mL (≈ 41.7 µM)
MIC ([2]; read-out: Meropenem MIC (10 μg ml^−1 2), with 10 μg ml^−1 2): 16 µg/mL (≈ 41.7 µM)
MIC ([2]; read-out: Meropenem MIC, meropenem alone): > 128 µg/mL
Meropenem MIC (25 μg ml^−1 2) [2]: 2 µg/mL
Meropenem MIC (25 μg ml^−1 2) ([2]; listed as meropenem): < 8 µg/mL
MIC ([3]; read-out: Meropenem MIC): ≤ 0.25 µg/mL
MIC ([3]; read-out: Meropenem MIC (10 μg ml^−1 2)): ≤ 0.25 µg/mL
MIC ([3]; read-out: Meropenem MIC (25 μg ml^−1 2)): ≤ 0.25 µg/mL
MIC (K. pneumoniae Ecl8 pSU18; ECL8PSU18, read-out: Meropenem MIC): ≤ 0.25 µg/mL
MIC (K. pneumoniae Ecl8 pSU18; ECL8PSU18, read-out: Meropenem MIC (10 μg ml^−1 2)): ≤ 0.25 µg/mL
MIC (K. pneumoniae Ecl8 pSU18; ECL8PSU18, read-out: Meropenem MIC (25 μg ml^−1 2)): ≤ 0.25 µg/mL

NCC1CCC(C(=O)N[C@H]2Cc3cccc(C(=O)O)c3O[B-]2(O)O)CC1 (some centres unmarked) [compound 3]
pIC50 (BcII): 6.0
IC50 (BcII): 0.96 µM
pIC50 (VIM-2): 7.9
IC50 (VIM-2): 0.011 µM
pIC50 (NDM-1): 6.1
IC50 (NDM-1): 0.687 µM
pIC50 (SPM-1): 4.8
IC50 (SPM-1): 16 µM
pIC50 (CphA): 4.68
IC50 (CphA): 20.9 µM
pIC50 (TEM-1): 8.5
IC50 (TEM-1): 0.002 µM
pIC50 (OXA-10): 6.0
IC50 (OXA-10): 0.83 µM
IC50 (PBP 3): > 100 µM

O=C(N[C@H]1Cc2cccc(C(=O)O)c2O[B-]1(O)O)c1ccc(CN2CCNCC2)cc1 [compound 4]
pIC50 (BcII): 6.2
IC50 (BcII): 0.52 µM
pIC50 (VIM-2): 7.8
IC50 (VIM-2): 0.014 µM
pIC50 (IMP-1): 4.7
IC50 (NDM-1): 0.04 µM
pIC50 (SPM-1): 4.8
IC50 (SPM-1): 13.9 µM
pIC50 (CphA): > 4
IC50 (CphA): > 100 µM
pIC50 (TEM-1): 9.4
IC50 (TEM-1): 0.0003 µM
pIC50 (OXA-10): 5.6
IC50 (OXA-10): 2.26 µM
IC50 (PBP 3): > 100 µM

NCCNCc1ccc(C(=O)N[C@H]2Cc3cccc(C(=O)O)c3O[B-]2(O)O)cc1 [compound 5]
pIC50 (BcII): 5.9
IC50 (BcII): 1.14 µM
IC50 (VIM-2): 0.002 µM
pIC50 (SPM-1): 4.4
IC50 (SPM-1): 36.3 µM
pIC50 (CphA): > 4
IC50 (CphA): > 100 µM
pIC50 (TEM-1): 8.1
IC50 (TEM-1): 0.006 µM
pIC50 (OXA-10): 4.9
IC50 (OXA-10): 12.7 µM
IC50 (PBP 3): > 100 µM
